From patent publication US7722858B2, “Prevention and treatment of atherosclerosis by reducing carbamylation of LDL or the effects of carbamylated LDL” (Board of Trustees of the University of Arkansas, priority 2001, dated 2010)
“Also recorded” adds a separate entry of the source.

Columns and labels:
lens protein = conditions: cited from earlier work
carbamylation of LDL = experiment: In vitro inhibition of LDL carbamylation by potassium cyanate; format: biochemical, human; conditions: molar ratios of 1:1 to 16:1 (L-lysine:KOCN)
Protocol: CLDL (cLDL) was produced by chemical modification of nLDL. Native LDL was incubated under sterile conditions with potassium cyanate (Aldrich; Milwaukee, Wis.) (20 mg KOCN/mg nLDL) at 35° C. for 4 hours. Salt was removed by excessive dialysis against 0.15 M NaCl, 0.01% EDTA, pH 7.0 at 4° C. for 48 hours under sterile conditions. To obtain cLDL carbamylated to different degrees, various incubation periods, from 5 to 300 min, were used.
Assessment of carbamylation was made (a) on the basis of relative electrophoretic mobility in agarose gel, and (b) by the homocitrulline assay as described by Trepanier et al.. Briefly, 25 μg of LDL protein in PBS, pH 7.4 (50 μl volume) was incubated with 2 μg proteinase K and 1% SDS (v:v) at 37° C. for 2 hours. Then 250 μl of urea-nitrogen reagent (0.83 M sulfuric acid, 1.13 M orthophosphoric acid, 0.55 mM thiosemicarbazide, 2.6 mM cadmium sulfate), 50 μl 3% diacetyl monoxime in water was added and the mixture was incubated at 97° C. for 30 min. Samples were transferred into a 96-well plate and absorption of chromogen(s) was recorded at 530 nm. Homocitrulline (carbamyl lysine) standard curves (0-30 nmol) were generated using serial dilutions of a stock solution (200 μM) in PBS, pH 7.4. Results are expressed as nmol homocitrulline/mg LDL protein).

HCAECs = experiment: Flow cytometry of LDL-treated cells double-labeled with BrdU and 7-AAD; format: cell-based, human
Protocol: Flow cytometry of LDL-treated cells double-labeled with BrdU and 7-AAD (marker of total DNA) was performed to detect whether BrdU incorporation is linked to DNA synthesis or DNA repair, and whether mitosis is suppressed, and thus accumulation of polyploid cells is associated with the increase of BrdU incorporation.

rat lens = rat lens incubated in cyanate; cited from earlier work

Compound: O=C(O)COc1nn(Cc2ccccc2)c2ccccc12 [Bendazac]
- carbamylation of lens protein (lens protein; present with cyanate): inhibits the carbamylation of lens protein

Compound: N=C(N)NCCC[C@H](N)C(=O)O [L-arginine]
- inhibition of carbamylation of LDL in vitro (carbamylation of LDL): can inhibit carbamylation of LDL in vitro

Compound: NCC(=O)O [L-glycine]
- inhibition of carbamylation of LDL in vitro (carbamylation of LDL): can inhibit carbamylation of LDL in vitro

Compound: NCCCC[C@H](N)C(=O)O [L-lysine]
- inhibition of carbamylation of LDL in vitro (carbamylation of LDL): can inhibit carbamylation of LDL in vitro; also recorded: inhibition of LDL carbamylation

Compound: N#C[O-].[K+] [Potassium cyanate, potassium cyanate]
- induction of proliferation or DNA synthesis (HCAECs): did not induce proliferation or DNA synthesis

Compound: CC(=O)Oc1ccccc1C(=O)O [aspirin]
- cyanate-induced increase in phase separation temperature (rat lens): aspirin-preventable increase in phase separation temperature

Compound: CC(C)Cc1ccc(C(C)C(=O)O)cc1 (stereo not shown) [ibuprofen]
- binding of cyanate to lens protein (lens protein): dose-dependent decrease
